Data on five compounds can be found in the Kinase Knowledgebase extract (Sharma et al. 2016).

The target of assay [1] is CDK2 (human) (UniProt P24941). The assay is described as follows: Enzyme Assay.
The target in assay [2] is CDK2 (human) (UniProt P24941). As to the kind of experiment: Enzyme Assay. This is another data set of the same source.

One may read the IC50 as the point on the concentration scale where inhibition reaches its midpoint. Low values mean higher potency, high ones lower potency.

Consider `CN(C)C1CCN(c2ccc(Nc3nc(N)c(C(=O)c4ccc([N+](=O)[O-])cc4)s3)cc2)CC1`, for which the concentration for half-maximal inhibition (IC50) at CDK2 (human) [1] and on CDK2 (human) [2] was 10 µM each time.
With `CCNC1CCN(c2ccc(Nc3nc(N)c(C(=O)c4cccc(F)c4)s3)cc2)CC1`, the IC50 against CDK2 (human) [1] and on CDK2 (human) [2] was 1.01 µM throughout.
Consider `Nc1nc(Nc2ccc(N3CCC(N4CCCC(O)C4)CC3)cc2)sc1C(=O)c1ccc2c(c1)OCCO2` (stereo not given), for which the IC50 against CDK2 (human) [1] and at CDK2 (human) [2] was 1.45 µM in each case.
Regarding `NC(=O)c1cc(C(=O)c2sc(Nc3ccc(N4CCC(N5CCCC5)CC4)cc3)nc2N)ccc1O`, the IC50 at CDK2 (human) [1] and against CDK2 (human) [2] was 10 µM throughout.
As for `Nc1nc(Nc2ccc(N3CCC(N4CCCC(O)C4)CC3)cc2)sc1C(=O)c1ccc(Cl)cc1` (stereo not given), the IC50 at CDK2 (human) [1] and against CDK2 (human) [2] was 10 µM throughout.
